From PubChem BioAssay (NCI)
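Values below derive from 48-hour exposures of cells grown in 96-well plates, with endpoints linearly interpolated between the two concentrations bracketing the appropriate inhibition level. Abbreviation: GI50, concentration required for 50% inhibition of growth. TGI marks complete inhibition of growth.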

Tests used:
Experiment in all cases: NCI tumour cell line growth inhibition, 48 h
SF-268 CNS = system: SF-268 CNS
CCRF-CEM leukemia = system: CCRF-CEM leukemia
HL-60(TB) leukemia = system: HL-60(TB) leukemia
RXF 393 renal = system: RXF 393 renal
PC-3 prostate = system: PC-3 prostate
OVCAR-8 ovarian = system: OVCAR-8 ovarian
SF-539 CNS = system: SF-539 CNS
OVCAR-3 ovarian = system: OVCAR-3 ovarian
K-562 leukemia = system: K-562 leukemia
MALME-3M melanoma = system: MALME-3M melanoma

Cc1c(C#N)c2nnn(C)c(=O)n2c1-c1ccccc1
TGI (SF-268 CNS): > 100 µM
TGI (CCRF-CEM leukemia): > 100 µM
TGI (HL-60(TB) leukemia): > 100 µM
TGI (RXF 393 renal): > 100 µM
TGI (PC-3 prostate): > 100 µM
TGI (OVCAR-8 ovarian): > 100 µM
TGI (SF-539 CNS): > 100 µM
TGI (OVCAR-3 ovarian): > 100 µM

Fc1c(F)c(C(F)(F)F)c(F)c(F)c1N/N=C\c1c[nH]c2ccccc12
TGI (SF-268 CNS): 19.4 µM
TGI (K-562 leukemia): 10.5 µM
TGI (CCRF-CEM leukemia): 4.73 µM
TGI (HL-60(TB) leukemia): 9.25 µM
TGI (MALME-3M melanoma): 16.1 µM
TGI (RXF 393 renal): 7.93 µM
TGI (PC-3 prostate): 8.01 µM
TGI (OVCAR-8 ovarian): 21.8 µM
TGI (OVCAR-3 ovarian): 4.7 µM

CN(C)c1ccc(/C=C/C=C\C2=CC(=C\C=C/C=C3C=CC(=[N+](C)C)C=C3)/Sc3ccccc32)cc1
TGI (SF-268 CNS): > 100 µM
TGI (K-562 leukemia): > 100 µM
TGI (HL-60(TB) leukemia): > 100 µM
TGI (MALME-3M melanoma): > 100 µM
TGI (RXF 393 renal): 32.7 µM
TGI (OVCAR-8 ovarian): > 100 µM
TGI (SF-539 CNS): > 100 µM
TGI (OVCAR-3 ovarian): > 100 µM

COc1cc2c(/C=C3/C(=O)Nc4ccc(Cl)cc43)c(Cl)n(Cc3ccccc3)c2cc1C
TGI (SF-268 CNS): > 100 µM
TGI (K-562 leukemia): > 100 µM
TGI (CCRF-CEM leukemia): 6.78 µM
TGI (HL-60(TB) leukemia): 17.4 µM
TGI (MALME-3M melanoma): 4.38 µM
TGI (RXF 393 renal): 5.18 µM
TGI (PC-3 prostate): 22.2 µM
TGI (SF-539 CNS): 7.69 µM
TGI (OVCAR-3 ovarian): 4.83 µM

COc1ccc(-c2ccc(-c3ccc(C(=N)N)nc3)s2)cc1
GI50 (SF-268 CNS): 1.76 µM
TGI (SF-268 CNS): 3.28 µM
GI50 (K-562 leukemia): 1.09 µM
TGI (K-562 leukemia): 3.53 µM
GI50 (MALME-3M melanoma): 1.84 µM
TGI (MALME-3M melanoma): 3.44 µM
GI50 (RXF 393 renal): 1.77 µM
TGI (RXF 393 renal): 3.34 µM
GI50 (PC-3 prostate): 1.68 µM
TGI (PC-3 prostate): 3.31 µM
GI50 (OVCAR-8 ovarian): 2.12 µM
TGI (OVCAR-8 ovarian): 4.87 µM
GI50 (SF-539 CNS): 1.73 µM
TGI (SF-539 CNS): 3.17 µM
GI50 (OVCAR-3 ovarian): 1.82 µM
TGI (OVCAR-3 ovarian): 3.27 µM

CC(=O)OCC(=O)[C@@]1(O)CC[C@H]2[C@@H]3CCC4=CC(=O)[C@H](C)C[C@]4(C)[C@H]3[C@@H](O)C[C@@]21C
TGI (SF-268 CNS): > 100 µM
TGI (K-562 leukemia): > 100 µM
TGI (CCRF-CEM leukemia): > 100 µM
TGI (HL-60(TB) leukemia): > 100 µM
TGI (MALME-3M melanoma): > 100 µM
TGI (OVCAR-8 ovarian): > 100 µM
TGI (SF-539 CNS): > 100 µM
TGI (OVCAR-3 ovarian): > 100 µM

COc1ccc(/C=C2\OC(=O)C(Cl)=C2c2ccc(OC)cc2)cc1
TGI (SF-268 CNS): > 100 µM
TGI (K-562 leukemia): > 100 µM
TGI (CCRF-CEM leukemia): > 100 µM
TGI (HL-60(TB) leukemia): > 100 µM
TGI (MALME-3M melanoma): > 100 µM
TGI (PC-3 prostate): > 100 µM
TGI (OVCAR-8 ovarian): > 100 µM
TGI (SF-539 CNS): > 100 µM
TGI (OVCAR-3 ovarian): > 100 µM

O=S(=O)([O-])[O-].[Fe+2].c1ccc(/C(=N\Nc2ccccn2)c2ccccn2)cc1
TGI (SF-268 CNS): 19.3 µM
TGI (K-562 leukemia): 8.44 µM
TGI (CCRF-CEM leukemia): 9.71 µM
TGI (HL-60(TB) leukemia): 4.62 µM
TGI (MALME-3M melanoma): 10.1 µM
TGI (RXF 393 renal): 11.7 µM
TGI (OVCAR-8 ovarian): 10.8 µM
TGI (SF-539 CNS): 6.42 µM
TGI (OVCAR-3 ovarian): 2.67 µM

O=C(NO)c1ccc([N+](=O)[O-])cc1
TGI (SF-268 CNS): > 100 µM
TGI (K-562 leukemia): > 100 µM
TGI (CCRF-CEM leukemia): > 100 µM
TGI (HL-60(TB) leukemia): 50.9 µM
TGI (MALME-3M melanoma): > 100 µM
TGI (RXF 393 renal): 71.8 µM
TGI (OVCAR-8 ovarian): > 100 µM
TGI (SF-539 CNS): > 100 µM
TGI (OVCAR-3 ovarian): > 100 µM

COc1ccc2c(c1)CC[C@@H]1[C@@H]2CC[C@]2(C)C(=O)C3(CCCCC3)C[C@@H]12
GI50 (K-562 leukemia): > 100 µM
TGI (K-562 leukemia): > 100 µM
GI50 (CCRF-CEM leukemia): > 100 µM
TGI (CCRF-CEM leukemia): > 100 µM
GI50 (HL-60(TB) leukemia): > 100 µM
TGI (HL-60(TB) leukemia): > 100 µM
GI50 (MALME-3M melanoma): > 100 µM
TGI (MALME-3M melanoma): > 100 µM
GI50 (RXF 393 renal): > 100 µM
TGI (RXF 393 renal): > 100 µM
GI50 (PC-3 prostate): > 100 µM
TGI (PC-3 prostate): > 100 µM
GI50 (OVCAR-8 ovarian): > 100 µM
TGI (OVCAR-8 ovarian): > 100 µM
GI50 (SF-539 CNS): > 100 µM
TGI (SF-539 CNS): > 100 µM
GI50 (OVCAR-3 ovarian): > 100 µM
TGI (OVCAR-3 ovarian): > 100 µM
